In patent US7714014B2, “Targeting GLI proteins in human cancer by small molecules” (The Regents of the University of California, priority 2005, dated 2010):

What was measured:
[1] = test system: NSCLC cell lines H1299 and A549, colon cancer cell lines SW480 and HCT116; assay: Cell survival assay (crystal violet), initial screening; assay type: cell-based, human; settings: 100 μM, all cancer cell lines tested
Protocol: (§1) Typically, the small molecule compounds of the present invention were dissolved in DMSO at a concentration of 30 mM. The small molecule compounds were then tested under cell culture conditions at different concentrations ranging from 0, 10, 30, 50, to 100 uM. To determine cell survival after treatment, the cells were incubated with the small molecule compounds in 6-well plates for about 3 days. After removal of the cell culture medium, 1-ml of 0.5% crystal violet solution (prepared in 20% ethanol and 20% methanol) was added to stain the cells for 5 min. Then the crystal violet solution was rinsed clean with tap water. Cell survival was estimated based on the density of crystal stained plates.
Initial screening of small molecule compounds of the present invention was performed using the cell-based assays described herein. […] Two NSCLC cell lines, H1299 and A549, and two colon cancer cell lines, SW480 and HCT116, were incubated with small molecule compounds FN1-1, FN1-2, FN1-3; FN1-5 and FN2-1 at a concentration of 100 μM. DMSO was used as a control. […] This assay identified the small molecule compound FN1-5 inhibiting GLI transcription activation domain (TAF-binding domain, TAFbd), as an active hit compound.

[2] = test system: H1299 (NSCLC); assay: Apoptosis analysis (Annexin V FITC, flow cytometry); assay type: cell-based, human; settings: 3 days
Protocol: Apoptosis was analyzed by using an Annexin V FITC Apoptosis Detection Kit (Biosource, Camarillo, Calif.), according to the manufacturer's protocol. After treatment with different small molecule compounds at various concentrations for about 3 days, cells were harvested by trypsinization, stained and immediately analyzed by flow cytometry (FACScan; Decton Dickinson, Franklin Lake, N.J.). Early apoptotic cells with exposed phosphatidylserine but intact cell membranes will bind to Annexin V-FITC, but not propidium iodide (PI). Cells in necrotic or late apoptotic stages will be labeled with both Annexin V-FITC and PI. “% apoptotic cells” or “% apoptosis” refers to the combined early and late apoptotic cells.
Flow cytometry was also used to examine apoptosis in several NSCLC cell lines after treatment with small molecule compounds of the invention.

[3] = test system: Dvl-3 and cytosolic β-catenin in HT29 tumor; assay: Western blot of cytosolic proteins from xenograft tumors; assay type: in vivo, mouse; settings: HT29 xenograft tumor (negative control)
Protocol: (§2) To examine whether the lead compound FN1-8 suppressed tumor growth through inhibition of the Wnt signaling pathway in vivo, Western blot analysis of cytosolic proteins isolated from the H460 and HT29 xenograft tumors was performed. GAPDH served as a control. This Western Blot analysis was performed using a “pooled” tumor from two randomly selected mice of each group with reasonable size tumors.

[4] = test system: Dvl-3 and cytosolic beta-catenin in H460 tumor; assay: as above; assay type: in vivo, mouse
Protocol: as §2

[5] = test system: melanoma cells Malme-3M, A375, G361, SK-Mel-2, SK-Mel-5, and SK-Mel-28; assay: MTS cell proliferation assay; assay type: cell-based, human; settings: 5 μM or 10 μM
Text: (§3) Another assay for determining the number of viable cells in proliferation or cytotoxicity assays is the MTS assay, a calorimetric method. MTS assay reagents are commercially available (Promega Corp., Madison, Wis.). The reagent contains a tetrazolium compound [3-(4,5-dimethylthiazol-2-yl)-5-(3-carboxymethoxyphenyl)-2-(4-sulfophenyl)-2H-tetrazolium, inner salt; MTS] and an electron coupling reagent (phenazine ethosulfate; PES). PES has enhanced chemical stability, which allows it to be combined with MTS to form a stable solution. The MTS tetrazolium compound (Owen.s reagent) is bioreduced by cells into a colored formazan product that is soluble in tissue culture medium. This conversion may be accomplished by NADPH or NADH produced by dehydrogenase enzymes in metabolically active cells. The quantity of formazan product as measured by the absorbance at 490 nm is directly proportional to the number of living cells in culture. Because the MTS formazan product is soluble in tissue culture medium, this assay requires fewer steps than procedures that use tetrazolium compounds such as MTT. The formazan product of MTT reduction is a crystalline precipitate that requires an additional step in the procedure to dissolve the crystals before recording absorbance readings at 570 nm. […]

[6] = test system: NSCLC cells A549, H358, and H322; assay: MTS cell proliferation assay; assay type: cell-based, human; settings: 7.5 μM or 15 μM; dose-dependent, already after 1 day
Text: as §3

[7] = Body weight of mice after in vivo treatment; design: species or system mouse; settings: three weeks after tumor inoculation and treatment
Protocol: As one preliminary in vivo toxicity study of FN1-8, it was examined if there was loss of body weight in the mice after the FN1-8 treatment. Three weeks after the initial tumor inoculation and the treatment as described in the previous examples, body weights of DMSO control group (n=11) and FN1-8 treated group (n=8) were measured using a scale.

[8] = test system: NSCLC cell lines A549, H358, and H322; assay: Dose titration, cell killing; assay type: cell-based, human; settings: 7.5-30 μM tested, 3 days
Protocol: as §1
Dose titration experiments of small molecule compound FN1-8 was performed using the NSCLC cell lines A549, H358, and H322. A 549, H358, and H322 cells were plated in 6-well plates and incubated with DM SO (control) or 7.5 μM, 10 μM, 15 μM, 20 μM, and 30 μM of FN1-8, respectively, for 3 days. A dramatic and dose-dependent cell killing in these cell lines was observed when FN1-8 was added at 15 μM or more. FN1-8 induced cell killing in A549 and […] at slightly lower concentrations than in H322 cells (data not shown). After 3 days, approximately 28% of the A549 cells and 58% of H358 underwent apoptosis when incubated with 20 μM FN1-8 (Table 3).

| SMILES | cell killing effect [1] | % of apoptotic cells ([2]; H1299, 10 μM) | % of apoptotic cells ([2]; H1299, 100 μM) | Dvl-3 and cytosolic β-catenin levels in tumor [3] | Dvl-3 and cytosolic beta-catenin expression in tumor [4] | cell proliferation (MTS) [5] | cell proliferation (MTS) [6] | loss of body weight [7] | concentration at which dramatic and dose-dependent cell killing was observed [8] |
| --- | --- | --- | --- | --- | --- | --- | --- | --- | --- |
| O=C(NCCCCCO)C1C(c2ccccc2)=NN(c2ccccc2)C1c1ccccc1 (stereo not drawn) [FN1-5, N-(5-Hydroxypentyl)-1,3,5-triphenyl-4,5-dihydro-pyrazole-4-carboxyamide] | dramatic cell killing effect | 6.7% | 55.9% | – | – | – | – | – | – |
| O=C(NCCc1ccc(O)cc1)C1C(c2ccccc2)=NN(c2ccccc2)C1c1ccccc1 (stereo not drawn) [FN1-8, N-(2-(4-Hydroxyphenyl)ethyl)-1,3,5-triphenyl-4,5-dihydro-pyrazole-4-carboxyamide] | – | – | – | no noticeable changes | down-regulated | significantly inhibited cell proliferation | significantly inhibited cell proliferation | No noticeable loss of the body weight | ≥ 15 µM |
